Results as given in PubChem BioAssay (NCI).
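Growth conditions: 96-well plates. Treatment: test compound, 48 hours, 5 concentrations. Analysis: linear interpolation between bracketing concentrations; unreached endpoints set to highest concentration. The concentration for 50% growth inhibition is given as GI50. TGI is the concentration that stops growth completely.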

Experiments:
Assay in all cases: DTP human tumour cell line panel, 48 h
[1] = test system: HCC-2998 colon
[2] = test system: 786-0 renal
[3] = test system: OVCAR-4 ovarian
[4] = test system: SW-620 colon
[5] = test system: SR leukemia
[6] = test system: ACHN renal
[7] = test system: K-562 leukemia
[8] = test system: MALME-3M melanoma
[9] = test system: HCT-15 colon
[10] = test system: MDA-MB-231 breast

Question: With COc1cc(Nc2nc3cc(N)cc(N)c3nc2-c2ccccc2)cc(OC)c1 as the compound, how does the GI50 [1] read?
Answer: 24.3 µM

Question: And the TGI [1]?
Answer: > 100 µM

Question: What about the GI50 [2] of the same compound?
Answer: 17.7 µM

Question: And the TGI [2]?
Answer: 50.8 µM

Question: And the GI50 [3]?
Answer: 17.8 µM

Question: And the TGI [3]?
Answer: > 100 µM

Question: What about the GI50 [4] of the same compound?
Answer: 27.2 µM

Question: And the TGI [4]?
Answer: > 100 µM

Question: What about the GI50 [5] of the same compound?
Answer: 5.67 µM

Question: What about the TGI [5] of the same compound?
Answer: > 100 µM

Question: And the GI50 [6]?
Answer: 5.65 µM

Question: What about the TGI [6] of the same compound?
Answer: 83.2 µM

Question: And the GI50 [7]?
Answer: 27.5 µM

Question: And the TGI [7]?
Answer: > 100 µM

Question: And the GI50 [8]?
Answer: 4.34 µM

Question: And the TGI [8]?
Answer: 24.6 µM

Question: And the GI50 [9]?
Answer: 20 µM

Question: What about the TGI [9] of the same compound?
Answer: > 100 µM

Question: What about the GI50 [10] of the same compound?
Answer: 6.5 µM

Question: And the TGI [10]?
Answer: 34.3 µM

Question: Which results are given for c1ccc(Cc2nc3ccc(Nc4ncnc5ccccc45)cc3[nH]2)cc1?
Answer: GI50 [1]: > 25 µM; TGI [1]: > 25 µM; GI50 [2]: > 25 µM; TGI [2]: > 25 µM; GI50 [3]: > 25 µM; TGI [3]: > 25 µM; GI50 [4]: > 25 µM; TGI [4]: > 25 µM; GI50 [5]: > 25 µM; TGI [5]: > 25 µM; GI50 [6]: 14.8 µM; TGI [6]: > 25 µM; GI50 [7]: > 25 µM; TGI [7]: > 25 µM; GI50 [8]: > 25 µM; TGI [8]: > 25 µM; GI50 [9]: > 25 µM; TGI [9]: > 25 µM; GI50 [10]: > 25 µM; TGI [10]: > 25 µM

Question: With CSc1nc2c(c(=O)[nH]1)N=C1c3ccccc3C(=O)C1C(c1ccc(F)cc1)N2 (stereo not given) as the compound, how does the GI50 [1] read?
Answer: 12.2 µM

Question: What about the TGI [1] of the same compound?
Answer: 30.5 µM

Question: What about the GI50 [2] of the same compound?
Answer: 12.4 µM

Question: What about the TGI [2] of the same compound?
Answer: 27.3 µM

Question: And the GI50 [3]?
Answer: 15.4 µM

Question: What about the TGI [3] of the same compound?
Answer: 67 µM

Question: What about the GI50 [4] of the same compound?
Answer: 4.48 µM

Question: And the TGI [4]?
Answer: 70.7 µM

Question: What about the GI50 [5] of the same compound?
Answer: 6.31 µM

Question: And the TGI [5]?
Answer: > 100 µM

Question: What about the GI50 [6] of the same compound?
Answer: 11.6 µM

Question: What about the TGI [6] of the same compound?
Answer: 36.4 µM

Question: What about the GI50 [7] of the same compound?
Answer: 4.05 µM

Question: What about the TGI [7] of the same compound?
Answer: > 100 µM

Question: And the GI50 [8]?
Answer: 19.6 µM

Question: And the TGI [8]?
Answer: > 100 µM

Question: And the GI50 [9]?
Answer: 4.57 µM

Question: What about the TGI [9] of the same compound?
Answer: > 100 µM

Question: What about the GI50 [10] of the same compound?
Answer: 12.6 µM

Question: What about the TGI [10] of the same compound?
Answer: > 100 µM

Question: What does the source list for COP(=O)(OC)C(NC(c1ccccc1)c1ccccc1)c1ccc2c(c1)OCO2 (stereo not given)?
Answer: GI50 [1]: 33.5 µM; TGI [1]: > 100 µM; GI50 [2]: 29.5 µM; TGI [2]: 74.9 µM; GI50 [3]: 30.5 µM; TGI [3]: 89.9 µM; GI50 [4]: 31.7 µM; TGI [4]: > 100 µM; GI50 [5]: 24.4 µM; TGI [5]: 48.9 µM; GI50 [6]: 29.1 µM; TGI [6]: > 100 µM; GI50 [7]: 20.7 µM; TGI [7]: 65 µM; GI50 [8]: 27.4 µM; TGI [8]: 58.9 µM; GI50 [9]: 30.1 µM; TGI [9]: 95.1 µM; GI50 [10]: 14 µM; TGI [10]: 37.9 µM

Question: For Cc1ccc(C(CN(C)C)C(=O)c2ccccc2)cc1 (stereo not given), which GI50 [1] is on record?
Answer: 6.62 µM

Question: What about the TGI [1] of the same compound?
Answer: 20.2 µM

Question: And the GI50 [2]?
Answer: 2.12 µM

Question: And the TGI [2]?
Answer: 4 µM

Question: What about the GI50 [3] of the same compound?
Answer: 2.76 µM

Question: And the TGI [3]?
Answer: 13 µM

Question: What about the GI50 [4] of the same compound?
Answer: 0.894 µM

Question: And the TGI [4]?
Answer: 2.71 µM

Question: And the GI50 [5]?
Answer: 1.03 µM

Question: What about the TGI [5] of the same compound?
Answer: 6.47 µM

Question: What about the GI50 [6] of the same compound?
Answer: 1.63 µM

Question: And the TGI [6]?
Answer: 3.18 µM

Question: And the GI50 [7]?
Answer: 1.37 µM

Question: And the TGI [7]?
Answer: 7.82 µM

Question: And the GI50 [8]?
Answer: 2.74 µM

Question: What about the TGI [8] of the same compound?
Answer: 8.89 µM

Question: And the GI50 [9]?
Answer: 1.7 µM

Question: And the TGI [9]?
Answer: 4.21 µM

Question: What about the GI50 [10] of the same compound?
Answer: 2.64 µM

Question: What about the TGI [10] of the same compound?
Answer: 7.07 µM

Question: How did the TGI [1] turn out when O=C(O)c1ccc2c(c1)Cc1cc([N+](=O)[O-])ccc1-2 was run?
Answer: > 100 µM

Question: What about the TGI [2] of the same compound?
Answer: > 100 µM

Question: And the TGI [3]?
Answer: > 100 µM

Question: What about the TGI [4] of the same compound?
Answer: > 100 µM

Question: And the TGI [5]?
Answer: > 100 µM

Question: What about the TGI [6] of the same compound?
Answer: > 100 µM

Question: What about the TGI [7] of the same compound?
Answer: > 100 µM

Question: What about the TGI [8] of the same compound?
Answer: > 100 µM

Question: And the TGI [9]?
Answer: > 100 µM

Question: What about the TGI [10] of the same compound?
Answer: > 100 µM
